Positions of bridges follow the written chain, without caps; N, C: chain ends. Non-standard residues stand in square brackets, D forms with d. Residues, ends and D or L forms follow the SMILES beside them.
Key:
[1] = Stability against acid hydrolysis and trypsin; assay type: in vitro ADME; details: 5 units trypsin for 2 hrs at 37° C.
Protocol: For example, to prepare a peptide 3 derivative, peptide 3(3-12)[MCP-1] was modified according to Jameson et al. (Nature, 368, 744 (1994)), which yielded CRD-Cys13Leu4Ile11peptide 3(3-12)[MCP-1] (FIG. 3). CRD-Cys13Leu4Ile11peptide 3(3-12)[MCP-1], which had very similar properties to peptide 3(1-12)[MCP-1] […] CRD-Cys13Leu4Ile11peptide 3(3-12)[MCP-1] was also resistant to hydrolysis in vivo and allowed therapeutically useful plasma concentrations to be achieved (>10 μM 24 hours after a single intraperitoneal dose of 1 mg of CRD-Cys13Leu4Ile11peptide 3(3-12)[MCP-1] in 250 μL saline).

[2] = tested on: LPS- and MCP-1-induced dermal inflammation; experiment: Rat dermal inflammation model (MCP-1 / LPS intradermal); assay type: in vivo
Protocol: To assess the efficacy of an agent of the invention in the prevention of lipopolysaccharide (LPS)- and MCP-1-induced dermal inflammation in the rat, three different doses of CRD-Leu4Ile11Cys13peptide 3(3-12)[MCP-1] were administered. An inflammatory response was elicited by intradermal injection (ventral abdomen) of either 500 ng MCP-1 or 100 ng MCP-1 along with endotoxin-free phosphate-buffered saline vehicle (as a negative control) and bacterial lipopolysaccharide (LPS; as a positive control). Each substance was injected at a different site. The results obtained from animals were compared to CRD-Leu4Ile11Cys13 peptide 3(3-12)[MCP-1] treated, and PBS (diluent control) treated, animals. […] The intradermal sites of agonist injection were collected, bisected and the extent of the inflammatory response was assessed by histopathology and quantitative immunofluorescence (fixed and frozen) (for example, following MCP-1 injection, the number of monocyte/macrophages in the skin was determined using the anti-CD14 (MCA342 from Serotec; clone ED2) at 3 μg/ml overnight at 4° C. The second antibody was rat anti-mouse FITC (415-096-100 from Jackson ImmunoResearch) at 28 μg/ml for 6 hours at room temperature). […]

SMILES: CC[C@@H](C)[C@H]1NC(=O)[C@@H](CCC(N)=O)NC(=O)[C@H](N)CSSC[C@H](C(N)=O)NC(=O)[C@@H](CC(C)C)NC(=O)[C@@H](CC(=O)O)NC(=O)[C@H]2CCCN2C(=O)[C@@H](CCCCN)NC(=O)[C@@H](CCC(N)=O)NC(=O)[C@@H](CCCCN)NC(=O)[C@@H](Cc2c[nH]c3ccccc23)NC1=O (H-[dC][dQ][dI][dW][dK][dQ][dK][dP][dD][dL][dC]-NH2; disulfide 1-11; N-terminus assumed)
- stability against enzymatic destruction [1]: stable
- recruitment of B-cells to the site of the LPS injection ([2]; rat skin): substantially inhibited
- MCP-1 induced recruitment of monocyte/macrophages in rat skin ([2]; systemic treatment 30 minutes before intradermal MCP-1): completely abolished

From patent publication US7989466B2, “Methods to inhibit or augment an inflammatory response” (Cambridge Enterprise Limited, priority 1999, dated 2011)
